# Results reported in ChEMBL document CHEMBL5038569, “Targeting RECQL5 Functions, by a Small Molecule, Selectively Kills Breast Cancer in Vitro and in Vivo” (J Med Chem, 2021).
# The source made the active and inactive calls. No cut-off for these calls is given here.
# Key:
# MCF7 [1] = experiment: Induction of DNA damage in human MCF7 cells expressing wild type RECQL5 assessed as double strand breaks by measuring increase in gamma-H2AX foci formation incubated for 24 hrs by immunofluorescence microscopic analysis; type: functional, cell-based; details: dose 0-20 µM
# MCF7 [2] = experiment: Induction of DNA damage in RECQL5 knock out human MCF7 cells assessed as double strand breaks by measuring increase in phosphorylation of ATM at S1981 residue at 20 uM measured up to 24 hrs by Western blot analysis; type: functional, cell-based; details: time hrs <=24
# MCF7 [3] = experiment: Induction of mitotic catastrophe phenotype in human MCF7 cells assessed as fused nucleus at 20 uM pretreated with cisplatin for 8 hrs followed by compound addition and measured after 24 hrs by immunofluorescence microscopic analysis; type: functional, cell-based
# MCF7 [4] = experiment: Effect on NHEJ-mediated double strand break repair in human MCF7 cells expressing wild type RECQL5 assessed as accumulation of KU80 on chromatin at 20 uM measured up to 24 hrs by Western blot analysis; type: cell-based; details: time hrs <=24
# MCF7 [5] = experiment: Cytotoxicity against human MCF7 cells expressing wild type RECQL5 assessed as cell growth inhibition measured after 72 hrs by MTT assay; type: functional; details: dose 6-50 µM
# MCF7 [6] = experiment: Cytotoxicity against human MCF7 cells expressing RECQL5-RFP wild type helicase assessed as sensitizing activity by measuring colony survival at 5 to 20 uM measured after 8 to 10 days by clonogenic survival assay; type: functional, cell-based; details: dose 5-20 µM, time 8-10 day
# MCF7 [7] = experiment: Effect on NHEJ-mediated double strand break repair in human MCF7 cells expressing wild type RECQL5 assessed as accumulation of DNA-dependent protein kinase on chromatin at 20 uM measured up to 24 hrs by Western blot analysis; type: cell-based; details: time hrs <=24
# MCF7 [8] = experiment: Induction of DNA damage in RECQL5 knock out human MCF7 cells assessed as double strand breaks by measuring increase in phosphorylation of ATR at S428 residue at 20 uM measured up to 24 hrs by Western blot analysis; type: functional, cell-based; details: time hrs <=24
# [9] = Toxicity in nude mouse xenografted with human MCF7 cells assessed as body weight loss at 50 mg/kg, po administered via oral gavage for 30 days and measured every 5 days; type: organism-based; details: in vivo, 720 h, time 30 day
# Homo sapiens = species on record: Homo sapiens; experiment: Inhibition of His-tagged human RECQL5 binding to [gamma 32P] labeled DNA substrate assessed as RECQL5-DNA complex formation at 10 uM preincubated for 30 mins followed by substrate addition and measured after 15 mins by gel electrophoresis and autoradiography method; details: time 45.0 min
# MCF7 [10] = experiment: Cytotoxicity against human MCF7 cells expressing RECQL5-RFP K58M helicase dead mutant assessed as sensitizing activity by measuring colony survival at 5 to 20 uM measured after 8 to 10 days by clonogenic survival assay; type: functional, cell-based; details: dose 5-20 µM, time 8-10 day
# MCF7 [11] = experiment: Cytotoxicity against RECQL5 knock out human MCF7 cells expressing […] assessed as reduction in colony formation at 10 uM measured after 8 to 10 days by clonogenic survival assay; type: functional, cell-based; details: time 8-10 day
# MCF7 [12] = experiment: Cytotoxicity against human MCF7 cells with shRNA-mediated BLM depletion assessed as reduction in cell viability at 6 to 25 uM measured after 8 to 10 days by clonogenic survival assay; type: functional, cell-based; details: dose 6-25 µM, time 8-10 day
# MCF7 [13] = experiment: Induction of DNA damage in human MCF7 cells expressing wild type RECQL5 assessed as double strand breaks by measuring increase in phosphorylation of ATM at S1981 residue at 20 uM measured up to 24 hrs by Western blot analysis; type: functional, cell-based; details: time hrs <=24
# MCF7 [14] = experiment: Cytotoxicity against RECQL5 knock out human MCF7 cells assessed as inhibition of colony formation measured after 8 to 10 days by clonogenic survival assay; type: functional, cell-based
# MCF7 [15] = experiment: Induction of DNA damage in human MCF7 cells expressing wild type RECQL5 assessed as double strand breaks by measuring increase in phosphorylation of p53 at S15 residue at 20 uM measured up to 24 hrs by Western blot analysis; type: functional, cell-based; details: time hrs <=24
# T47D [16] = experiment: Stabilization of RECQL5-RAD51 complex in RECQL5 knock out human T47D cells expressing wild type RECQL5-FLAG assessed as increase in RAD51-RECQL5-FLAG pull down at 20 uM measured after 8 hrs by coimmunoprecipitation assay; type: cell-based
# U2OS [17] = experiment: Cytotoxicity against human U2OS cells expressing wild type RECQL5 and p53 mutant assessed as reduction in colony formation measured after 8 to 10 days by clonogenic survival assay; type: functional, cell-based; details: time 8-10 day
# MCF7 [18] = experiment: Inhibition of homologous recombinant repair in RECQL5 knock out human MCF7 cells assessed as stabilization of RAD51-RECQL5 interaction by measuring increase in RAD51 foci formation at 20 uM measured after 4 to 24 hrs by immunofluorescence microscopic analysis; type: functional, cell-based; details: time 4-24 hrs
# T47D [19] = experiment: Inhibition of homologous recombinant repair in human T47D cells expressing wild type RECQL5 assessed as stabilization of RAD51-RECQL5 interaction by measuring increase in RAD51 foci formation at 20 uM measured after 4 to 24 hrs by immunofluorescence microscopic analysis; type: functional, cell-based; details: time 4-24 hrs
# [20] = Toxicity in nude mouse xenografted with human MCF7 cells assessed as morphological changes in heart at 50 mg/kg, po administered via oral gavage and measured after 30 days; type: organism-based; details: in vivo, 720 h, time 30 day
# MCF7 [21] = experiment: Induction of mitotic catastrophe phenotype in human MCF7 cells assessed as nuclear bridge formation at 20 uM pretreated with cisplatin for 8 hrs followed by compound addition and measured after 24 hrs by immunofluorescence microscopic analysis; type: functional, cell-based
# [22] = Toxicity in […] mouse assessed as fold change in spleen cell count at 100 mg/kg, po administered as single dose via gavage measured after 30 days relative to control; type: organism-based; details: in vivo, 720 h, time 30 day
# U2OS [23] = experiment: Induction of apoptosis in RECQL5 depleted human U2OS cells assessed as cell death measured after 72 hrs by propidium iodide/RNase A staining based flow cytometric analysis; type: functional
# MCF7 [24] = experiment: Inhibition of homologous recombinant repair in human MCF7 cells expressing RECQL5 wildtype assessed as stabilization of RAD51-RECQL5 interaction by measuring increase in RAD51 foci formation at 20 uM measured after 4 to 24 hrs by immunofluorescence microscopic analysis; type: functional, cell-based; details: time 4-24 hrs
# MCF7 [25] = experiment: Induction of DNA damage in human MCF7 cells expressing wild type RECQL5 assessed as double strand breaks by measuring increase in phosphorylation of CHK1 at S345 residue at 20 uM measured up to 24 hrs by Western blot analysis; type: functional, cell-based; details: time hrs <=24
# T47D [26] = experiment: Inhibition of homologous recombinant repair in RECQL5 knock out human T47D cells assessed as stabilization of RAD51-RECQL5 interaction by measuring increase in RAD51 foci formation at 20 uM measured after 4 to 24 hrs by immunofluorescence microscopic analysis; type: functional, cell-based; details: time 4-24 hrs
# MCF7 [27] = experiment: Induction of mitotic catastrophe phenotype in human cisplatin-resistant MCF7 cells assessed as fused nucleus at 20 uM pretreated with cisplatin for 8 hrs followed by compound addition and measured after 24 hrs by immunofluorescence microscopic analysis; type: functional, cell-based
# MCF7 [28] = experiment: Antitumor activity against human MCF7 cells expressing wild type RECQL5 xenografted in nude mouse assessed as reduction in tumor growth at 50 mg/kg, po administered as single dose via gavage measured after 30 days; type: functional, organism-based; details: time 30.0 day, TDE = time-dependent effect
# MCF7 [29] = experiment: Antitumor activity against RECQL5 knock out human MCF7 cells xenografted in nude mouse assessed as reduction in tumor growth at 50 mg/kg, po administered as single dose via gavage measured after 30 days; type: functional, organism-based; details: time 30.0 day
smiles,measurement,setting,value
O=C(Nc1cc(C(F)(F)F)cc(C(F)(F)F)c1)N[C@@H](c1ccccc1)c1nnc(SCc2ccccc2)o1,Activity,MCF7 [1],Dose-Dependent Effect
same,Activity,MCF7 [2],inactive
same,Activity,MCF7 [3],Active
same,Activity,MCF7 [4],inactive
same,IC20,MCF7 [5],8.2 µM
same,Activity,MCF7 [6],Active
same,Activity,MCF7 [7],inactive
same,Activity,MCF7 [8],inactive
same,Activity,[9],Non-Toxic
same,inhibition,Homo sapiens,inactive
same,Activity,MCF7 [10],Active
same,Activity,MCF7 [11],inactive
same,Activity,MCF7 [12],Active
same,Activity,MCF7 [13],Active
same,IC50,MCF7 [14],19.6 µM
same,Activity,MCF7 [15],Active
same,Activity,T47D [16],Active
same,Activity,U2OS [17],Active
same,inhibition,MCF7 [18],inactive
same,inhibition,T47D [19],Active
same,Activity,[20],Non-Toxic
same,Activity,MCF7 [21],Active
same,fold change (FC),[22],1.03
same,Activity,U2OS [23],inactive
same,inhibition,MCF7 [24],Active
same,Activity,MCF7 [25],Active
same,inhibition,T47D [26],inactive
same,Activity,MCF7 [27],Active
same,Activity,MCF7 [28],Tde
same,Activity,MCF7 [29],inactive
